Experiment: In vitro absorption of foam/gas in fresh human venous blood
Assay type: in vitro ADME
Conditions: 0.5 ml aliquot in 20 ml blood
Method: In vitro experiments were conducted to determine the absorption of foam made with different gases in fresh human venous blood.
A 20 ml polypropylene syringe barrel was prepared by puncturing its side wall with a relatively large hypodermic needle to make a hole approximately 1 mm in diameter. This hole was then covered by securing a piece of clear flexible vinyl sheet over it with clear adhesive tape. A small magnetic stirrer element was introduced into the syringe barrel and the plunger then replaced. 20 ml of human venous blood was then with withdrawn in the usual manner from a human subject using the specially prepared syringe fitted with a hypodermic needle.
The hypodermic needle was removed and the syringe then placed on a magnetic stirrer unit so that the magnetic element in the syringe thoroughly agitated the blood. The Luer nozzle of the syringe was then connected to a 50 cm piece of manometer tubing which was arranged horizontally and left open at one end. The manometer tubing was secured against a scale.
A 0.5 ml measuring syringe with a fine pre-fitted needle was then filled with foam made from 1% polidocanol solution and air. The density of the foam was 0.13 g/ml (±0.03 g/ml), the liquid component making up approximately 13% of the total volume of foam (±3%).
The needle of the 0.5 ml syringe was then introduced through the vinyl sheet on the side wall of the 20 ml syringe. […] The 0.5 ml aliquot of foam was then injected quickly and simultaneously a timer started (t0). As the foam displaced blood in the 20 ml syringe, the column of blood from the 20 ml syringe was displaced into the manometer tubing and the distance along the tubing reached by the distal end of the blood column was noted against the scale. The scale itself comprised spaced marker lines equally spaced at about 1 cm intervals. It was determined that a distance of 45 intervals on this scale corresponded to an internal volume of in the manometer tubing of approximately 0.5 ml.
As the gas in the foam started to be absorbed by the blood, the blood in the manometer tubing started to recede back towards the syringe. After the column appeared to have stopped moving, the timer was stopped (tF). The position of the distal end was again noted.
In this experiment, the air foam test was only observed for a few minutes after tF. However, further experiments have been conducted by the inventors, the results of which are not formally recorded here, involving foam with a percentage of nitrogen. A 20 ml syringe of fresh human venous blood, as in the above experiments, was injected with a 0.5 ml aliquot of a foam containing a percentage of nitrogen. The contents of the syringe were agitated as above and a period of 24 hours allowed to elapse.

Absorbed volume at tF: 0.46 mL
Unabsorbed gas %: 8%
Unabsorbed gas ml: 0.04 mL
tF (time until blood column stopped moving): 140 s
Compound: O=O [Oxygen, oxygen]

From patent publication US20060280690A1, “Methods of preparing a foam comprising a sclerosing agent” (priority 2003, published 2006)
